Laboratory results taken from US20110251220A1, “Pharmaceutical compositions comprising gamma secretase modulators” (priority 2008, published 2011).

What was measured:
U266 cells = assay: PARP cleavage by Western blotting, U266; type: cell-based, human
Method: (§1) Whole cell extracts were prepared and quantified as described in Jundt F, Anagnostopoulos I, Forster R, Mathas S, Stein H, Dorken B. Activated Notch1 signaling promotes tumor cell proliferation and survival in Hodgkin and anaplastic large cell lymphoma. Blood. 2002; 99:3398-3403. Proteins (30 μg) were resolved by sodium dodecyl sulfate-polyacrylamide gel electrophoresis (SDS-PAGE) and transferred to nitrocellulose membranes. Protein loading was normalized by Ponceau red staining. Membranes were incubated with monoclonal mouse anti-Notch1 antibody (no. 552466; BD Biosciences, Heidelberg, Germany), anti-Jagged1 antibody (sc-8303; Santa Cruz Biotechnology), polyclonal rabbit anti-Delta antiboday (Santa Cruz Biotechnology), polyclonal rabbit anti-cleaved PARP (Asp214) antibody (Cell Signaling Technologies, Frankfurt a.M., Germany) or mouse monoclonal anti-tubulin antibody (Sigma, Deisenhofen, Germany).
(§2) Secondary antibodies were goat anti-mouse (Promega, Mannheim, Germany), goat anti-rat (Dianova, Hamburg, Germany), and goat anti-rabbit (Santa Cruz Biotechnology) horseradish peroxidase (HRP)-conjugated antibodies. Detection was done using Pico chemi-luminescence reagent (Perbio Science, Bonn, Germany).

[1] = Physiological compatibility, parenteral administration in mice; conditions: in vivo, other: parenteral, mouse
Method: The compound according to example 1 was tested for its physiological compatibility via parenteral administration in mice. The LD50 (parenteral, mouse) is 800 mg/kg. Accordingly compound 1 can be considered to be physiologically compatible.

MSC = assay: PARP cleavage in mesenchymal stem cells (MSC), mono- and coculture; type: cell-based, human; conditions: mono- and cocultures, high doses of GSI15
Method: as §1, §2

MM cells = assay: Proliferation assay (CellTiter-Glo), concentration of 50% growth inhibition; type: cell-based; conditions: Homo sapiens; read-out: Concentration at which 50% cell growth inhibition was observed
Method: Human MM cell lines used were as follows: NCI-H929, OPM-2, LP-1, RPMI-8226, U266 (DSMZ, Braunschweig, Germany). Cell lines were cultured in RPMI 1640 medium (Biochrom, Berlin, Germany) supplemented with 10% heat-inactivated fetal calf serum (FCS, Gibco, Karlsruhe, Germany), 1 mM sodium pyruvate and 100 units/ml penicillin and 100 μg/ml streptomycin (Gibco). Human osteoclasts were obtained as described in the reference of Zavrski I, Krebbel H, Wildemann B, et al. Proteasome inhibitors abrogate osteoclast differentiation and osteoclast function. Biochem Biophys Res Commun. 2005; 333:200-205. Briefly, peripheral blood mononuclear cells (PBMC) were isolated from whole blood of healthy volunteers, using a Ficoll-Hypaque density gradient. The adherent fraction of the isolated mononuclear cells was cultured for 21 days in MEM medium (Sigma-Aldrich Chemie, Taufkirchen, Germany) supplemented with 10% FCS, 100 U/ml penicillin, 100 μg/ml streptomycin, 50 ng/ml M-CSF, and 25 ng/ml RANKL (osteoclastogenic medium), before coculture experiments and treatment with the inventive compounds started. Human osteoblasts were obtained according to Robey P G, Termine J D. Human bone cells in vitro. Calcif Tissue Int. 1985; 37:453-460 as described in Hecht M, Heider U, Kaiser M, von Metzler I, Sterz J, Sezer O. Osteoblasts promote migration and invasion of myeloma cells through upregulation of matrix metalloproteinases, urokinase plasminogen activator, hepatocyte growth factor and activation of p38 MAPK. Br J Haematol. 2007; 138: 446-458. Briefly, trabecular bone specimens from patients without malignant disease undergoing knee or hip surgery were minced and washed to remove bone marrow cells. The bone fragments were resuspended in Dulbecco's modified Eagle's medium (DMEM)/HAM's F12 medium (Biochrom, Berlin, Germany) supplemented with 10% FCS and cultured in tissue culture flasks until a confluent cell monolayer was obtained. Culturing of functional osteoblasts was confirmed by alkaline phosphatase (ALP) staining (kit from Sigma, USA), realtime RT-PCR analysis of expression of osteoblast markers (ALP, osteocalcin) and by von-Kossa staining before coculture and treatment experiments were started.
The compound according to example 1, hereinafter referred to as GSI15, (compound RH02015SC, Maybridge, Acros Organics, Geel, Belgium) was freshly dissolved as 26 mM stock solution in Dimethylsulfoxide (DMSO). Multiple myeloma therapeutics used were melphalan (marketed as Alkeran®, GlaxoSmithKline, Munich, Germany) and bortezomib (marketed as Velcade®, Janssen-Cilag, Neuss, Germany). Melphalan was freshly dissolved at 10 mg/ml in 0.9% NaCl-solution. Bortezomib was freshly dissolved at 100 ng/ml in 0.9% NaCl solution. Gamma Secretase Inhibitor (GSI) treatment for apoptosis assessment by AnnexinV/PI staining, cell cycle analysis and coculture experiments was performed in 6-well plates. GSI15 stock solution was added directly to the cell suspension. GSI treatment for assaying proliferation was performed in 96-well plates. 10,000 cells per well were seeded in 50 μl medium per well before 50 μl of a 2× solution of GSI15 prediluted in medium were added per well. […]
For assaying proliferation/viability of cells CellTiter-Glo Luminescent Cell Viability Assay (Promega, Mannheim, Germany) was used. In this assay the number of viable cells at a given time point is determined by quantification of ATP present, which serves as a measure of metabolically active cells. […]

male Sprague-Dawley rats = assay: PAN-model of albuminuric glomerular disease; type: in vivo, rat; conditions: day 7, 500 μg/100 g rat i.p. once per day, compared to PAN alone
Method: For the in vivo studies male Sprague-Dawley rats were purchased from Charles River and treated with puromycin aminoglycoside (PAN) to induce albuminuric glomerular disease as described previously (Niranjan et al., “The Notch pathway in podocytes plays a role in the development of glomerular disease.” Nat. Med. 14: 290-298, 2008). Rats were injected PAN (150 mg/kg) once. The test compounds were administered intraperitoneally (500 μg/100 g rat) once per day (n=4 animals per group). Injection of test compounds were started one day after PAN injection. All studies were performed in accordance with the European Union normative. As a positive control one group of rats received gamma secretase inhibitor DAPT.
Urinary albumine was measured at the indicated days as described previously (Sanchez-Nino et al., “The MIF receptor CD74 in diabetic podocyte injury”. J. Am. Soc. Nephrol. 20: 353-362, 2009). For total protein measurement urine samples were centrifuged and pellets were diluted in distilled water. Exton reagent (230 mM sulfosalic acid, 1.4 M sodium sulfate) was added and after 10 minutes absorbance was measured at 620 nm.

For `CC(C)c1ccc(S(=O)(=O)Nc2cccnc2Oc2ccc(Cl)cc2)cc1` [Example 1, N-(2-(4-chlorophenoxy)pyridin-3-yl)-4-isopropylbenzenesulfonamide], which “PARP cleavage product (apoptosis marker)” value (U266 cells) is on record?
Its value is “not in the U266 cell line”.

And the LD50 [1]?
Its LD50 is 800 mg/kg.

What about the “PARP cleavage (apoptosis)” value (MSC) of the same molecule?
The value was “Neither in OBL nor in MSC apoptosis was induced”.

What about the IC50 (MM cells) of the same molecule?
The IC50 was 20 µM.

And the inhibition of albuminuria (male Sprague-Dawley rats)?
The inhibition of albuminuria was 56%.

And the inhibition of proteinuria (male Sprague-Dawley rats)?
The inhibition of proteinuria was 50%.
